Marks after values point to notes of the source that are not given here.
Legend:
Type in all cases: cell-based, human
[1] = test system: LPS-stimulated PBM; experiment: IL-8 release by ELISA, PBM; conditions: for effect on IL-8 release by LPS-stimulated PBM: preincubated 24 hour, LPS 20 hour
Experimental: (§1) PBM and AM obtained as described infra (1×10^6 PBM, 0.5×10^6 AM) were preincubated for 24 hour with cytokines, IL-4, IL-9 (20 ng/ml) and IFN-γ (200 U/ml) before the stimulation by LPS (1 μg/ml) for 20 h. Supernatants were harvested and frozen at −20° C. until cytokine titration. TNF-α release was determined in supernatants by a cytotoxic bioassay using WEHI 164 clone 13 target cells (Espevik and Nissen-Meyer, J. Immunol. Methods, 95:99-105 (1986) (incorporated herein by reference)), while IL-8 was quantitated in the same supernatants by ELISA. FIG. 5 depicts the effects of IL-9, IL-4, and IFN-γ on the release of TNFα (A) and IL-8 (B) by LPS-stimulated PBM and AM. Data are means±SEM (n=3). *P<0.001 compared with unstimulated cells; **P<0.05 compared with cells preincubated with medium.
(§2) Cells (1×10^6 PBM or 0.5×10^6 AM/well) were distributed in 24-well plates (Falcon), preincubated in cRPMI for 24 hours at 37° C., 5% CO2 with cytokines (IL-9, IL-4 (20 ng/ml) and IFN-γ (200 U/ml)) and stimulated for 20 hours with 1 μg/ml LPS without removing cytokines. Supernatants were harvested and frozen at −20° C. until cytokine titration. Release of TNF-α was quantified by a cytotoxicity bioassay using WEHI 164 cells clone 13, as previously described (Espevik and Nissen-Meyer, J. Immunol. Methods, 95:99-105 (1986) incorporated herein by reference), using rhTNF-α from Boehringer as a standard. IL-8, IL-10 and TGF-β1 concentrations were determined by ELISA. A kit from CLB (Amsterdam, The Netherlands) was used for IL-10 quantitation, following the manufacturer's protocol. A kit from Biosource allowed to determine TGF-β1 after the release from its latent complexes by a treatment of supernatants with ethanol acid (‘acid-treated supernatants’); TGF-P 1 was also assessed in crude supernatants (‘untreated supernatants’). […] The reaction was then developed in 0.03% v/v H2O2 substrate and 0.42 mM 3,3′,5,5′-tetramethylbenzidine as chromogen in 100 mM sodium acetate/citric acid buffer (pH 4.9), stopped with 2 M H2SO4, and read in a plate spectrometer at 450 nm. […]

[2] = test system: LPS-stimulated PBM; experiment: IL-10 release by ELISA, PBM; conditions: for IL-10 release by LPS-stimulated PBM: preincubated 24 hour, LPS 20 h
Experimental: (§3) FIG. 6 depicts the effect of IL-9, IL-4 and IFN-γ on the release of IL-10 (A) and TGF-β1 (B) by LPS-stimulated PBM and AM cultured under the same conditions as described in FIG. 5 Example I. D. TGF-β1 was determined by ELISA in crude supernatants (untreated supernatants) and in ethanol-acid (acid-treated) supernatants, using a kit from Biosource for determining TGF-β1 release from its latent complexes. An ELISA kit from CLB (Amsterdam, The Netherlands) was used to determine IL-10 following the manufacturer's protocol. […] Data are means±SEM (n=3). *P<0.05 compared with unstimulated cells; **P<0.05 compared with cells preincubated with medium.
as §2, with “supernatants’). To assay for IL-8, 96-well plates were coated overnight at 4° C. with 4 μg/ml anti-hIL-8 mAb (Sigma, clone 6217.11) in 100 mM sodium carbonate buffer (pH 9.6).” for “supernatants’).”

[3] = test system: LPS-stimulated PBM; experiment: TGF-β1 release by ELISA, PBM; conditions: for potentiation of TGF-β1 production by LPS-stimulated PBM: preincubated 24 hour
Experimental: as §3
Cells (1×10^6 PBM or 0.5×10^6 AM/well) were distributed in 24-well plates (Falcon), preincubated in cRPMI for 24 hours at 37° C., 5% CO2 with cytokines (IL-9, IL-4 (20 ng/ml) and IFN-γ (200 U/ml)) and stimulated for 20 hours with 1 μg/ml LPS without removing cytokines. Supernatants were harvested and frozen at −20° C. until cytokine titration. Release of TNF-α was quantified by a cytotoxicity bioassay using WEHI 164 cells clone 13, as previously described (Espevik and Nissen-Meyer, J. Immunol. Methods, 95:99-105 (1986) incorporated herein by reference), using rhTNF-α from Boehringer as a standard. IL-8, IL-10 and TGF-β1 concentrations were determined by ELISA. A kit from CLB (Amsterdam, The Netherlands) was used for IL-10 quantitation, following the manufacturer's protocol. A kit from Biosource allowed to determine TGF-β1 after the release from its latent complexes by a treatment of supernatants with ethanol acid (‘acid-treated supernatants’); TGF-P 1 was also assessed in crude supernatants (‘untreated supernatants’). To assay for IL-8, 96-well plates were coated overnight at 4° C. with 4 μg/ml anti-hIL-8 mAb (Sigma, clone 6217.11) in 100 mM sodium carbonate buffer (pH 9.6). After washings in PBS containing 0.1% v/v Tween 20 and blocking for 1 hour at 37° C. with 1% w/v BSA in the same buffer, rhIL-8 standards (Biosource International) and supernatants were incubated for 2 hour at 37° C. Plates were then incubated with 20 ng/ml biotinylated polyclonal anti-hIL-8 Ab (R§D Systems) in blocking buffer and, after washings, with HRP-conjugated streptavidin (Sigma). The reaction was then developed in 0.03% v/v H2O2 substrate and 0.42 mM 3,3′,5,5′-tetramethylbenzidine as chromogen in 100 mM sodium acetate/citric acid buffer (pH 4.9), stopped with 2 M H2SO4, and read in a plate spectrometer at 450 nm. The sensitivity of the TNF-α bioassay was 0.2 pg/ml, and that of IL-8, IL-10, and TGF-β1 immunoassays 10 pg/ml, 2 pg/ml, and 2 pg/ml, respectively. All supernatants were assayed in duplicate.

[4] = test system: LPS-stimulated AM; experiment: TNF-α release, cytotoxic bioassay with WEHI 164 clone 13 cells, AM; conditions: for TNF-α release by LPS-stimulated AM: preincubated 24 hour with cytokine (IL-9, IL-4 20 ng/ml, IFN-γ 200 U/ml) or medium, LPS 1 μg/ml 20 h, without LPS 4.6±2.1
Experimental: as §1, §2

[5] = test system: CD14; experiment: CD14 surface expression on PBM by FACS; conditions: for CD14 expression (MFI): PBM preincubated 24 hour, 20 ng/ml IL-9 or IL-4, 200 U/ml IFN-γ, means±SD, medium 107 ± 4; for CD14 expression on the surface of PBM compared with medium alone: preincubated for 24 hour
Experimental: Table 2. Cells (0.2×10^6) were preincubated for 24 hour with cytokines (20 ng/ml for IL-9 or IL-4 and 200 U/ml for IFN-γ), before the assessment of LPS receptor expression by immunostaining using anti-human CD14 mAb conjugated to FITC and anti-human TLR4 rabbit Ab followed by mouse anti-rabbit IgG (MAR-FITC). Cell-associated fluorescence was evaluated by FACS and expressed as mean fluorescence intensity (MFI). Autofluorescence of PBM was negligible (MFI: 3±1). Data are means±SD (n=3), and are representative of two experiments. *P<0.05 compared with cells preincubated with medium.
Additional stainings for CD14 and Toll-like receptor (TLR)-4 were performed on PBM preincubated for 24 hour with cytokines, using respectively FITC-conjugated anti-CD14 mAb (clone MøP9, mIgG2b, Becton Dickinson) and anti-TLR4 rabbit Ab (Santa Cruz, Calif.) followed by F (ab′)2 fragments of mouse anti-rabbit IgG (MAR)-FITC.

## IL-4: Th2 cytokine interleukin-4 used as comparator, 20 ng/ml
[1]; preincubated 24 hour with cytokine or medium, LPS 1 μg/ml 20 hour, without LPS 10.0±2.4
  IL-8 release by LPS-stimulated PBM: 20.1 ± 2.1 ng/mL
[2]
  IL-10 release by LPS-stimulated PBM: inhibited
[3]; LPS 20 h
  potentiation of TGF-β1 production by LPS-stimulated PBM: not observed
[4]; preincubated 24 hour, LPS 20 h
  effect on TNF-α production in LPS-stimulated AM: No significant inhibition
[5]
  CD14 expression (MFI): 57 ± 3* MFI
  CD14 expression on the surface of PBM compared with medium alone: down regulated

## IL-9: Human IL-9 purified from SF9 insect cell cultures infected with recombinant baculovirus
[1]
  effect on IL-8 release by LPS-stimulated PBM: no significant modulation
[2]; preincubated 24 hour 20 ng/ml, LPS 1 μg/ml 20 h, medium-preincubated 217.8±25.8
  LPS-induced IL-10 release by PBM: 119.7 ± 8.7 pg/mL
[3]; acid-treated supernatants, preincubated 24 hour 20 ng/ml, LPS 20 h, medium-preincubated 586±64
  production of TGF-β1 by LPS-stimulated PBM: 1687 ± 94 pg/mL
[3]; without LPS
  modulation of TGF-β1 in unstimulated PBM: no modulation
[4]
  TNF-α release by LPS-stimulated AM: 74.8 ± 10.2 pg/mL
[5]
  CD14 expression (MFI): 108 ± 5 MFI
  CD14 expression on the surface of PBM compared with medium alone: not significantly different
[5]; co-incubation with IFN-γ
  effect on the up regulation of CD14 on PBM incubated with IFN-γ: inhibited

B1: IFN-γ: Interferon gamma, primes mononuclear phagocytes, 200 U/ml (protein, UniProt P01579 24-161, looked up)
Interferon gamma: QDPYVKEAENLKKYFNAGHSDVADNGTLFLGILKNWKEESDRKIMQSQIVSFYFKLFKNFKDDQSIQKSVETIKEDMNVKFFNSNKKKRDDFEKLTNYSVTDLNVQRKAIHELIQVMAELSPAAKTGKRKRSQMLFRG
[1]
  effect on IL-8 release by LPS-stimulated PBM: no significant modulation
[2]
  IL-10 release by LPS-stimulated PBM: decreased
[3]; LPS 20 h
  potentiation of TGF-β1 production by LPS-stimulated PBM: not observed
[4]
  TNF-α release by LPS-stimulated AM: 145.2 ± 9.4 pg/mL
[5]
  CD14 expression (MFI): 121 ± 6* MFI
  CD14 expression on the surface of PBM compared with medium alone: increased
